Legend:
[1] = test system: cell lines from hematological malignancies; test: Cell Titer Glo proliferation, Compound 1 in combination with second active agents; type: cell-based; conditions: very sensitive cell lines such as JJN-3, SU-DHL2 or SU-DHL10; combined with Compound 1
Procedure: Cell Lines/Cells: Activated B-Cell (ABC) cell lines: TMD-8, SU-DHL-2, OCI-Ly10, RIVA, U2932; and Germinal Center B-cell (GCB) cell lines: SU-DHL10, Pfeiffer, WSU-DLCL2, SU-DHL4, DB; myeloma cell lines: H929, JJN3 and SK-MM1; acute myeloid leukemia cell line: HNT-34; acute lymphocytic leukemia cell line: Karpas-231; other lymphoma cell lines: Daudi, Karpas-299, HuT-102, L-428.
Alternatively, combination compound solutions were serially diluted from 5 μM starting concentration and serially diluted 6-fold for a 6-point dilution curve. […] Cells were added to each well and cultured for 3 days. […] For some other epigenetic agents (EPZ5676, C646, OICR-9429, ACY-241, GSK3484862, Compound C, UNC 0631, GSK3326595, LP99, A-196, CARM1 EZM2302) cells were cultured for 5 days due to their mechanism of action.
Plates were either made at a concentration of 10 μM or 1 μM diluted 3-fold for a 10-point dilution curve, with a final DMSO concentration of 0.2%. All cell line solutions were diluted to a concentration of 100,000 cells/mL and added to each well in a volume of 50 μL, with the exception of SU-DHL-6 solution, which was diluted to 25,000 cells/mL. At the end of the treatment period cells were lysed with Cell Titer Glo (CTG) reagents following manufacture recommendation. Luminescent signal was read using an Envision and data was normalized by DMSO for data analysis.
Data Analysis: The combination effect was analyzed by combining results from Highest Single Agent (HSA) and Bliss Independency methods. See, e.g., Foucquier J, Guedj M., Analysis of drug combinations: current methodological landscape. Pharmacol Res Perspect. 2015; 3(3):e00149. doi:10.1002/prp2.149.
Combined results of HSA and Bliss scores were used to define synergistic and additive effect of the combinations.

[2] = test system: DB DLBCL xenograft tumors; test: DB (DLBCL) xenograft model, Compound 1 alone and with tazemetostat; type: in vivo, female SCID mice; conditions: single agent tazemetostat 200 mg/kg oral BID, three weeks
Procedure: (§1) Anti-tumor activity of Compound 1 alone and in combination with tazemetostat was studied in DB (DLBCL) xenograft model. Compound 1 (3, 10 or 30 mg/kg) was administered once daily for 5 consecutive days followed by 2 days off (5 D on/2 D off) and tazemetostat (200 mg/kg) was administered twice daily (BID).
(§2) Methods: Xenograft study was conducted with female SCID mice bearing DB DLBCL xenograft tumors. Female SCID mice were inoculated subcutaneously with DB cells in the flank region above the right hind leg. Following inoculation of animals, the tumors were allowed to grow to approximately 200 mm^3 prior to randomization. On day 33 following tumor cell inoculation, the mice bearing DB tumors ranging between 150 and 250 mm^3 were pooled together and randomized into various treatment groups. Compound 1 was formulated in 0.5% Methyl Cellulose, 0.25% Tween 80 and 50 mM Citrate pH 3 in water. Tazemetostat was formulated in CMC-Tween. Compound 1 (3, 10 or 30 mg/kg) was orally administered with three cycles of once daily for 5 consecutive days followed by 2 days off starting from day 33 after tumor cell inoculation. Tazemetostat (200 mg/kg) was orally administered twice day (BID) for three weeks. In combination group the animals received Compound 1 (3, 10 or 30 mg/kg, 5 D on/2 D off) and tazemetostat (200 mg/kg, BID) simultaneously for three weeks starting from day 33 after tumor cell inoculation. Tumors were measured twice a week using calipers and tumor volumes were calculated using the formula of W^2×L/2. Statistical analysis was performed using a one-way or 2-way analysis of variance (ANOVA). Synergy calculations were performed using fractional product method.

[3] = test system: WSU-DLCL2 DLBCL xenograft tumors; test: WSU-DLCL2 (DLBCL) xenograft model, Compound 1 alone and with tazemetostat; type: in vivo, female SCID mice; conditions: single agent tazemetostat 200 mg/kg oral BID, three weeks
Procedure: as §1, with “WSU-DLCL2” for “DB”, “(1” for “(3, 10 or 30”
as §2, with “bearing WSU-DLCL2” for “bearing DB”, “with WSU-DLCL2” for “with DB”, “day 14” for “day 33”, “1 (1” for “1 (3, 10 or 30”, “Tazemetostat 200” for “Tazemetostat (200”, “1 (1 mg/kg/5” for “1 (3, 10 or 30 mg/kg, 5”

| Structure (SMILES) | effect on proliferation of combination with Compound 1 (HSA and Bliss scores) [1] | other results |
| --- | --- | --- |
| COc1cc(Nc2ncc3c(n2)-c2ccc(Cl)cc2C(c2c(F)cccc2OC)=NC3)ccc1C(=O)O [alisertib, 4-((9-chloro-7-(2-fluoro-6-methoxyphenyl)-5H-benzo[c]pyrimido[4,5-e]azepin-2-yl)amino)-2-methoxybenzoic acid] | synergistic effects | – |
| Cc1sc2c(c1C)C(c1ccc(Cl)cc1)=N[C@@H](CC(=O)Nc1ccc(O)cc1)c1nnc(C)n1-2 [birabresib, (S)-2-(4-(4-chlorophenyl)-2,3,9-trimethyl-6H-thieno[3,2-f][1,2,4]triazolo[4,3-a][1,4]diazepin-6-yl)-N-(4-hydroxyphenyl)acetamide] | synergistic effects | – |
| CO[C@H]1C[C@@H]2CC[C@@H](C)[C@@](O)(O2)C(=O)C(=O)N2CCCC[C@H]2C(=O)O[C@H]([C@H](C)C[C@@H]2CC[C@@H](OCCO)[C@H](OC)C2)CC(=O)[C@H](C)/C=C(\C)[C@@H](O)[C@@H](OC)C(=O)[C@H](C)C[C@H](C)/C=C/C=C/C=C/1C [everolimus, 40-O-(2-hydroxyethyl)-rapamycin] | synergistic effects | – |
| Cc1cnc(Nc2ccc(OCCN3CCCC3)cc2)nc1Nc1cccc(S(=O)(=O)NC(C)(C)C)c1 [fedratinib, N-tert-butyl-3-[(5-methyl-2-{4-[2-(pyrrolidin-1-yl)ethoxy]anilino}pyrimidin-4-yl)amino]benzenesulfonamide] | synergistic effects | – |
| Cc1[nH]c2ccccc2c1CCNCc1ccc(/C=C/C(=O)NO)cc1 [panobinostat, (2E)-N-hydroxy-3-[4-({[2-(2-methyl-1H-indol-3-yl)ethyl]amino}methyl)phenyl]acrylamide] | synergistic effects | – |
| CCN(c1cc(-c2ccc(CN3CCOCC3)cc2)cc(C(=O)NCc2c(C)cc(C)[nH]c2=O)c1C)C1CCOCC1 [tazemetostat, N-[(1,2-dihydro-4,6-dimethyl-2-oxo-3-pyridinyl)methyl]-5-[ethyl(tetrahydro-2H-pyran-4-yl)amino]-4-methyl-4′-(4-morpholinylmethyl)-[1,1′-biphenyl]-3-carboxamide, reference compound] | – | inhibition of tumor growth (TVR) [2]: 64.5%; inhibition of tumor growth (TVR) ([2]; listed as Tazemetostat): −45.9%; inhibition of tumor growth [3]: −50.5% |
| CC[C@]1(O)C[C@H]2CN(CCc3c([nH]c4ccccc34)[C@@](C(=O)OC)(c3cc4c(cc3OC)N(C=O)[C@H]3[C@@](O)(C(=O)OC)[C@H](OC(C)=O)[C@]5(CC)C=CCN6CC[C@]43[C@@H]65)C2)C1 [vincristine] | synergistic effects | – |
